Holding throughout (format): functional, organism-based
Assay [1] relates to Plasmodium falciparum. The assay is described as follows: Antiplasmodial activity against Plasmodium falciparum 3D7. The conditions noted are these: for EC50: read-out: EC50.
Assay [2] has as its system Plasmodium falciparum. As to the kind of experiment: Antimalarial activity against chloroquine resistant Plasmodium falciparum FcB1.
In assay [3] the test system is Plasmodium falciparum. As to the kind of experiment: Antiplasmodial activity against Plasmodium falciparum W2.
Assay [4] relates to Plasmodium falciparum. As to the kind of experiment: Antiplasmodial activity against Plasmodium falciparum FcM29.
Assay [5] relates to Plasmodium falciparum. The assay is described as follows: Antiplasmodial activity against Plasmodium falciparum Nigerian.
For assay [6], the system named is Plasmodium falciparum. As to the kind of experiment: Antiplasmodial activity against Plasmodium falciparum NF54.
Assay [7] concerns Plasmodium falciparum. The assay is described as follows: Antiplasmodial activity against Plasmodium falciparum DD2.
The subject of assay [8] is Plasmodium falciparum. As to the kind of experiment: Antiplasmodial activity against chloroquine resistant Plasmodium falciparum.
In assay [9] the test system is Plasmodium falciparum. The assay is described as follows: Antiplasmodial activity against Plasmodium falciparum D6.
Assay [10] has as its system Plasmodium falciparum. The assay is described as follows: Antiplasmodial activity against Plasmodium falciparum TM91C235.

The values below come from ChEMBL document CHEMBL5241075, “Advancement of chimeric hybrid drugs to cure malaria infection: An overview with special emphasis on endoperoxide pharmacophores” (Eur J Med Chem, 2021).

As for `C[C@H]1[C@@H](OC(=O)CCC(=O)Oc2ccc(Nc3ncnc4ccccc34)cc2)O[C@@H]2O[C@]3(C)CC[C@H]4[C@H](C)CC[C@@H]1[C@@]24OO3`, the EC50 (usually the concentration giving half of the maximal effect) in [1] was 0.0038 µM.

On to `CCOP(=O)(CCCN(O)C(=O)CCC(=O)N(CCCCNC(=O)CC[C@H]1O[C@@H]2O[C@]3(C)CC[C@H]4[C@H](C)CC[C@@H]([C@H]1C)C24OO3)CCCNC(=O)CC[C@@H]1O[C@H]2O[C@@]3(C)CC[C@@H]4[C@@H](C)CC[C@H]([C@@H]1C)C24OO3)OCC`, for which the IC50 – broadly, the concentration at which inhibition is half-maximal – in assay [2] stood at 0.65 µM.

The compound `CC(C)CN(NC(=O)C1CCC2(CC1)OOC1(OO2)C2CC3CC(C2)CC1C3)c1ccnc(C#N)n1` (stereo unspecified) came in with an IC50 in [3] of 0.0098 µM.

Take `Clc1cc(NCCNC2CCC3(CC2)OO[C@@]2(c4ccccc4)CC(c4ccccc4)=C[C@H]2O3)c2ncccc2c1` (mixture of isomers): the IC50 in [2], in [4] and in assay [5] was 0.022 µM throughout.

In turn, `C1CN(c2nc(N3CCOCC3)nc(N3CCC4(CC3)OOC3(OO4)C4CC5CC(C4)CC3C5)n2)CCO1` gave a 50% inhibitory concentration (IC50) in assay [1] of 0.00412 µM.

`C[C@@H]1CC[C@H]2[C@@H](C)C(c3ccco3)O[C@@H]3O[C@]4(C)CC[C@@H]1[C@]32OO4` (stereo partly specified) had an IC50 in assay [6] of 0.0014 µM.

With `C1CCC2(C1)OOC1(CCN(c3nc(N4CCOCC4)nc(N4CCOCC4)n3)CC1)OO2`, the 50% inhibitory concentration (IC50) in assay [1] is 0.00552 µM.

As to `Clc1cc(NCCCN[C@@H]2C[C@@H]3CCC4(OO[C@@]5(c6ccccc6)CC(c6ccccc6)=C[C@H]5O4)[C@@H]3C2)c2ncccc2c1` (stereo partly specified), the half-inhibitory concentration (IC50) in [2], in assay [4] and in assay [5] was 0.031 µM throughout.

Take `COc1ccc2nc3cc(Cl)ccc3c(NCCNCCO[C@H]3O[C@@H]4O[C@]5(C)CC[C@H]6[C@H](C)CC[C@@H]([C@H]3C)[C@@]46OO5)c2c1`: the figures for the half-maximal inhibitory concentration (IC50) in assay [6] and in [7] were 0.0026 µM and 0.0353 µM, respectively.

In assay [8], `C[C@@H]1CC[C@@H]2[C@]34OO[C@@](C)(CC[C@@H]13)O[C@H]4OC(Nc1ncccn1)[C@@]2(C)Br` (stereo partly specified) came in with an IC50 of 0.16 ng/mL.

On to `C[C@H]1[C@@H](OC(=O)CCC(=O)Nc2cccc3ncnc(Nc4ccc(Cl)c(Cl)c4)c23)O[C@@H]2O[C@]3(C)CC[C@H]4[C@H](C)CC[C@@H]1[C@@]24OO3`, for which the EC50 in assay [1] came to 0.0024 µM.

Turning to `Clc1cc(NCCCN[C@H]2C[C@H]3CCC4(OO[C@@]5(c6ccccc6)CC(c6ccccc6)=C[C@H]5O4)[C@H]3C2)c2ncccc2c1` (stereo partly specified), the IC50 in assay [2], in [4] and in assay [5] was 0.063 µM in each case.

Turning to `COc1ccc2nc3cc(Cl)ccc3c(NCCN3CCN(CCO[C@H]4O[C@@H]5O[C@]6(C)CC[C@H]7[C@H](C)CC[C@@H]([C@H]4C)[C@@]57OO6)CC3)c2c1`, the IC50 worked out at 0.0141 µM in assay [6] and 0.0504 µM in assay [7].

For `COc1ccc2nc3cc(Cl)ccc3c(N3CCN(CCO[C@H]4O[C@@H]5O[C@]6(C)CC[C@H]7[C@H](C)CC[C@@H]([C@H]4C)[C@@]57OO6)CC3)c2c1`, the IC50 was determined as 0.267 µM in assay [6] and 0.43 µM in assay [7].

In the case of `CCC1O[C@@H]2O[C@]3(C)CC[C@H]4[C@H](C)CC[C@@H]([C@H]1C)[C@@]24OO3` (stereo partly specified), the values for the IC50 in [3] and in [9] were 0.29 ng/mL and 1.09 ng/mL, respectively.

In assay [2], `CCOP(=O)(CCCN(O)C(=O)CC[C@H]1O[C@@H]2O[C@]3(C)CC[C@H]4[C@H](C)CC[C@@H]([C@H]1C)C24OO3)OCC` showed a half-maximal inhibitory concentration (IC50) of 28 µM.

For the compound `Clc1cc(NCCCCNC2CCC3(CC2)OO[C@@]2(c4ccccc4)CC(c4ccccc4)=C[C@H]2O3)c2ncccc2c1` (stereo partly specified), the IC50 in assay [2], in assay [4] and in assay [5] was 0.041 µM throughout.

The compound `CCOP(=O)(CCCN(O)C(=O)CCC(=O)N(CCCNC(=O)CC[C@H]1O[C@@H]2O[C@]3(C)CC[C@H]4[C@H](C)CC[C@@H]([C@H]1C)C24OO3)CCCNC(=O)CC[C@H]1O[C@@H]2O[C@]3(C)CC[C@H]4[C@H](C)CC[C@@H]([C@H]1C)C24OO3)OCC` came in with an IC50 in [2] of 0.36 µM.

On to `Clc1cc(NCCCNC2CCC3(CC2)OO[C@@]2(c4ccccc4)CC(c4ccccc4)=C[C@H]2O3)c2ncccc2c1` (mixture of isomers), for which the concentration for half-maximal inhibition (IC50) in assay [2], in assay [4] and in assay [5] was 0.041 µM each time.

Regarding `CCCC1O[C@@H]2O[C@]3(C)CC[C@H]4[C@H](C)CC[C@@H]([C@H]1C)[C@@]24OO3` (stereo partly specified), the half-maximal inhibitory concentration (IC50) in [3] stood at 0.16 ng/mL; in assay [9] it was 0.41 ng/mL.

For the compound `COc1cc(NC(C)CCCNC2CCC3(CC2)OO[C@@]2(C)CCC(C(C)C)=C[C@H]2O3)c2ncccc2c1` (stereo partly specified), the IC50 in [2], in assay [4] and in assay [5] was 0.108 µM throughout.

In turn, `C1CCCC2(CC1)OOC1(CCN(c3nc(N4CCOCC4)nc(N4CCOCC4)n3)CC1)OO2` registered a half-inhibitory concentration (IC50) in [1] of 0.00571 µM.

Compound `C1CCC2(CC1)OOC1(CCN(c3nc(N4CCOCC4)nc(N4CCOCC4)n3)CC1)OO2` displayed an IC50 in assay [1] of 0.00568 µM.

For `C[C@@H]1CC[C@H]2[C@@H](C)C(Oc3ccccc3)O[C@@H]3O[C@]4(C)CC[C@@H]1[C@]32OO4` (stereo partly specified), in [8], the IC50 is 0.0053 µM.

On to `C[C@@H]1C[C@@H]2CC3(CC[C@@H]2C2CC[C@@]4(C)C(CC[C@@H]4[C@H](C)CCCNCCNc4ccnc5cc(Cl)ccc45)C21)OOC1(CCCCC1)OO3` (stereo partly specified), for which the values for the IC50 in assay [3], in assay [9] and in assay [10] were 0.0229 µM, 0.0335 µM and 0.0302 µM, respectively. Also, the 90% effect concentration (IC90) (commonly the concentration at which the effect reaches the 90% level) worked out at 0.0303 µM in [3], 0.103 µM in assay [9] and 0.16 µM in assay [10].

On to `CC(CCC1OOC(C)(C)C(C)(CI)O1)NCCNc1ccnc2cc(Cl)ccc12` (stereo unspecified), for which the IC50 in assay [2], in assay [4] and in assay [5] was 0.188 µM in each case.

For `COc1ccc2nc3cc(Cl)ccc3c(NCCCN(C)CCO[C@H]3O[C@@H]4O[C@]5(C)CC[C@H]6[C@H](C)CC[C@@H]([C@H]3C)[C@@]46OO5)c2c1`, the IC50 in [6] was found to be 0.0122 µM; in assay [7], 0.0385 µM.

Consider `C[C@@H]1CC[C@@H]2[C@]34OO[C@@](C)(CC[C@@H]13)O[C@H]4OC(Nc1cccc(F)c1)[C@@]2(C)Br` (stereo partly specified), for which, in assay [8], the IC50 was 0.16 ng/mL.

As to `COc1ccc2nc3cc(Cl)ccc3c(NCCN3CCNCC3)c2c1`, the results for the IC50 in assay [6] and in [7] were 0.0073 µM and 0.142 µM, respectively.

For `CC(=O)O[C@H]1CC2C(C3CC[C@H]([C@H](C)CCC(=O)NCCNc4ccnc5cc(Cl)ccc45)[C@]31C)[C@H](OC(C)=O)C[C@@H]1CC3(CC[C@H]21)OOC1(CCCCC1)OO3` (stereo partly specified), the IC50 in [3] came out at 0.00447 µM; in assay [9], 0.00653 µM; in assay [10] it was 0.00854 µM. Further, the IC90 in assay [3] worked out at 0.0105 µM; in assay [9], 0.0106 µM; in assay [10], 0.0172 µM.

Consider `COc1ccc2nc3cc(Cl)ccc3c(N3CCN(CCO[C@H]4O[C@@H]5O[C@]6(C)CC[C@H]7[C@H](C)CC[C@@H]([C@H]4C)[C@@]57OO6)C(C)C3)c2c1` (stereo partly specified), for which the IC50 was determined as 0.017 µM in assay [6] and 0.0413 µM in assay [7].

In the case of `Clc1cc(NCCNC2CCC3(CC2)OOC2CCC=CC2O3)c2ncccc2c1` (stereo unspecified), the 50% inhibitory concentration (IC50) in assay [2], in assay [4] and in [5] was 0.036 µM throughout.
